Assays:
Kv1.3 [1] = molecular target: T1, Kv1.3 (Homo sapiens, UniProt P22001); experiment: whole-cell patch clamp, Kv1.[…] stably expressed in CHO cells; assay type: cell-based
Kv1.3 [2] = molecular target: T1, Kv1.3; experiment: whole-cell patch clamp of Kv1.[…] current in Jurkat lymphocytes, […] compound; assay type: cell-based; conditions: read-out: % inhibition at 1 μM

T1 sequence (P22001 whole entry): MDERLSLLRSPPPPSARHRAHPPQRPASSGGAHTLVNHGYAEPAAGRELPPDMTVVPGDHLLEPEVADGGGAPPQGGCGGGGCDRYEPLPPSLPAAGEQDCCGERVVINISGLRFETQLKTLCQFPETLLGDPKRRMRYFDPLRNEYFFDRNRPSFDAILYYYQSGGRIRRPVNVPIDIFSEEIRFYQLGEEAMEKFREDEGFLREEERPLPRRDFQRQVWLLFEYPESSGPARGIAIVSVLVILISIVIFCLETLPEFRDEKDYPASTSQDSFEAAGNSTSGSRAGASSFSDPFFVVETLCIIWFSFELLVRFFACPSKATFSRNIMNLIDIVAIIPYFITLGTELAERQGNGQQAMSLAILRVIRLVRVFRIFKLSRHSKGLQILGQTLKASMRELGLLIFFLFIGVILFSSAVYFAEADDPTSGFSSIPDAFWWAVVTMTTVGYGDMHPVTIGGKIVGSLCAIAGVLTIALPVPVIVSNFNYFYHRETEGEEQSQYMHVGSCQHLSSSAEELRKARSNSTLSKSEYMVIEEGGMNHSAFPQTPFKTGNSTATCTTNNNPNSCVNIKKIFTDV

Row | SMILES | EC50 (Kv1.3 [1]) [nM] | inhibition at 1 µM (Kv1.3 [2]) [%]
1 | COCCOCCOCCOCCOCCOCCOc1ccc(OCCCCOc2c3ccoc3cc3oc(=O)ccc23)cc1 [PAP-1-MHEG, 4-(4-(4-(2,5,8,11,14,17-hexaoxanonadecan-19-yloxy)phenoxy)butoxy)-7H-furo[3,2-g]chromen-7-one] | 350 ± 30 | 
2 | CCCCCOc1ccc(OCCOCCOCCOCCOCCOCCOC)cc1 [POP-MHEG, 19-(4-(pentyloxy)phenoxy)-2,5,8,11,14,17-hexaoxanonadecane] |  | ~70

Reference: PMC7527709 (Redox Biology, 2020)
